From US5399543A, “3-[4-(phenylmethoxy)phenyl]-1-substituted-6-haloalkyl-uracil herbicides” (FMC Corporation, priority 1993, dated 1995)

Columns and labels:
Blackgrass [1] = assay: Preemergence herbicidal activity, blackgrass; format: in vivo, Aloepecurus myosuroides; details: Alopecurus myosuroides, pre-emergence, 0.3 kg/ha, after 17-21 days, read-out: Preemergence herbicidal activity (% control), Blackgrass
Experimental: (§1) The 3-[4-(phenylmethoxy)phenyl]-1-substituted-6-haloalkyluracil herbicides of this invention were tested for pre- and postemergence herbicidal activity using a variety of crops and weeds. The test plants included soybean (Glycine max var. Williams), field corn (Zea mays var. Agway 425X), wheat (Triticum aestivum var. Wheaton), morningglory (Ipomea lacunosa or Ipomea hederacea), velvetleaf (Abutilon theophrasti), green foxtail (Setaria viridis), Johnsongrass (Sorghum halepense), blackgrass (Aloepecurus myosuroides), common chickweed (Stellaria media), and common cocklebur (Xanthium pensylvanicum).
(§2) For preemergence testing, two disposable fiber flats (8 cm×15 cm×25 cm) for each rate of application of each candidate herbicide were filled to an approximate depth of 6.5 cm with steam-sterilized sandy loam soil. The soil was leveled and impressed with a template to provide five evenly spaced furrows 13 cm long and 0.5 cm deep in each flat. Seeds of soybean, wheat, corn, green foxtail, and johnsongrass were planted in the furrows of the first flat, and seeds of velvetleaf, morningglory, common chickweed, cocklebur, and blackgrass were planted in the furrows of the second flat. The five-row template was employed to firmly press the seeds into place. A topping soil of equal portions of sand and sandy loam soil was placed uniformly on top of each flat to a depth of approximately 0.5 cm. Flats for postemergence testing were prepared in the same manner except that they were planted 8-12 days prior to the preemergence flats and were placed in a greenhouse and watered, thus allowing the seeds to germinate and the foliage to develop.
(§3) In both pre- and postemergence tests, a stock solution of the candidate herbicide was prepared by dissolving 0.27 g of the compound in 20 mL of water/acetone (50/50) containing 0.5% v/v sorbitan monolaurate. For an application rate of 3000 g/ha of herbicide a 10 mL portion of the stock solution was diluted with water/acetone (50/50) to 45 mL.
(§4) The preemergence flats were initially subjected to a light water spray. The four flats were placed two by two along a conveyor belt (i.e., the two preemergence followed by the two postemergence flats). The conveyor belt fed under a spray nozzle mounted about ten inches above the postemergent foliage. The preemergent flats were elevated on the belt so that the soil surface was at the same level below the spray nozzle as the foliage canopy of the postemergent plants. The spray of herbicidal solution was commenced and once stabilized, the flats were passed under the spray at a speed to receive a coverage equivalent of 1000 L/ha. At this coverage the application rates are those shown in the above table for the individual herbicidal solutions. The preemergence flats were watered immediately thereafter, placed in the greenhouse and watered regularly at the soil surface. The postemergence flats were immediately placed in the greenhouse and not watered until 24 hours after treatment with the test solution. Thereafter they were regularly watered at ground level. After 17-21 days the plants were examined and the phytotoxicity data were recorded.
(§5) Herbicidal activity data at selected application rates are given for various compounds of this invention in Table 2 and Table 3. The test compounds are identified by numbers which correspond to those in Table 1.
(§6) Phytotoxicity data were taken as percent control. Percent control was determined by a method similar to the 0 to 100 rating system disclosed in "Research Methods in Weed Science," 2nd ed., B. Truelove, Ed.; Southern Weed Science Society; Auburn University, Auburn, Ala., 1977.

Soybean [2] = assay: Postemergence herbicidal activity, soybean; format: in vivo, Glycine max var. Williams; details: Glycine max, post-emergence, 0.3 kg/ha, after 17-21 days, read-out: Postemergence herbicidal activity (% control), Soybean
Experimental: as §1, §2, §3, §4, §5, §6

Johnsongrass [3] = assay: Postemergence herbicidal activity, johnsongrass; format: in vivo; details: Sorghum halepense, post-emergence, 0.3 kg/ha, after 17-21 days, read-out: Postemergence herbicidal activity (% control), Johnsongrass
Experimental: as §1, §2, §3, §4, §5, §6

Morningglory [4] = assay: Preemergence herbicidal activity, morningglory; format: in vivo, Ipomea lacunosa or Ipomea hederacea; details: Ipomoea, pre-emergence, 0.3 kg/ha, after 17-21 days, read-out: Preemergence herbicidal activity (% control), Morningglory
Experimental: as §1, §2, §3, §4, §5, §6

Chickweed [5] = assay: Postemergence herbicidal activity, chickweed; format: in vivo; details: Stellaria media, post-emergence, 0.3 kg/ha, after 17-21 days, read-out: Postemergence herbicidal activity (% control), Chickweed
Experimental: as §1, §2, §3, §4, §5, §6

Morningglory [6] = assay: Postemergence herbicidal activity, morningglory; format: in vivo, Ipomea lacunosa or Ipomea hederacea; details: Ipomoea, post-emergence, 0.3 kg/ha, after 17-21 days, read-out: Postemergence herbicidal activity (% control), Morningglory
Experimental: as §1, §2, §3, §4, §5, §6

Velvetleaf [7] = assay: Preemergence herbicidal activity, velvetleaf; format: in vivo; details: Abutilon theophrasti, pre-emergence, 0.3 kg/ha, after 17-21 days, read-out: Preemergence herbicidal activity (% control), Velvetleaf
Experimental: as §1, §2, §3, §4, §5, §6

Cocklebur [8] = assay: Postemergence herbicidal activity, cocklebur; format: in vivo, Xanthium pensylvanicum; details: Xanthium strumarium, post-emergence, 0.3 kg/ha, after 17-21 days, read-out: Postemergence herbicidal activity (% control), Cocklebur
Experimental: as §1, §2, §3, §4, §5, §6

Corn [9] = assay: Postemergence herbicidal activity, corn; format: in vivo, Zea mays var. Agway 425X; details: Zea mays, post-emergence, 0.3 kg/ha, after 17-21 days, read-out: Postemergence herbicidal activity (% control), Corn
Experimental: as §1, §2, §3, §4, §5, §6

Chickweed [10] = assay: Preemergence herbicidal activity, chickweed; format: in vivo; details: Stellaria media, pre-emergence, 0.3 kg/ha, after 17-21 days, read-out: Preemergence herbicidal activity (% control), Chickweed
Experimental: as §1, §2, §3, §4, §5, §6

Soybean [11] = assay: Preemergence herbicidal activity, soybean; format: in vivo, Glycine max var. Williams; details: Glycine max, pre-emergence, 0.3 kg/ha, after 17-21 days, read-out: Preemergence herbicidal activity (% control), Soybean
Experimental: as §1, §2, §3, §4, §5, §6

Blackgrass [12] = assay: Postemergence herbicidal activity, blackgrass; format: in vivo, Aloepecurus myosuroides; details: Alopecurus myosuroides, post-emergence, 0.3 kg/ha, after 17-21 days, read-out: Postemergence herbicidal activity (% control), Blackgrass
Experimental: as §1, §2, §3, §4, §5, §6

Green foxtail [13] = assay: Postemergence herbicidal activity, green foxtail; format: in vivo; details: Setaria viridis, post-emergence, 0.3 kg/ha, after 17-21 days, read-out: Postemergence herbicidal activity (% control), Green foxtail
Experimental: as §1, §2, §3, §4, §5, §6

Johnsongrass [14] = assay: Preemergence herbicidal activity, johnsongrass; format: in vivo; details: Sorghum halepense, pre-emergence, 0.3 kg/ha, after 17-21 days, read-out: Preemergence herbicidal activity (% control), Johnsongrass
Experimental: as §1, §2, §3, §4, §5, §6

Cocklebur [15] = assay: Preemergence herbicidal activity, cocklebur; format: in vivo, Xanthium pensylvanicum; details: Xanthium strumarium, pre-emergence, 0.3 kg/ha, after 17-21 days, read-out: Preemergence herbicidal activity (% control), Cocklebur
Experimental: as §1, §2, §3, §4, §5, §6

Velvetleaf [16] = assay: Postemergence herbicidal activity, velvetleaf; format: in vivo; details: Abutilon theophrasti, post-emergence, 0.3 kg/ha, after 17-21 days, read-out: Postemergence herbicidal activity (% control), Velvetleaf
Experimental: as §1, §2, §3, §4, §5, §6

Green foxtail [17] = assay: Preemergence herbicidal activity, green foxtail; format: in vivo; details: Setaria viridis, pre-emergence, 0.3 kg/ha, after 17-21 days, read-out: Preemergence herbicidal activity (% control), Green foxtail
Experimental: as §1, §2, §3, §4, §5, §6

Corn [18] = assay: Preemergence herbicidal activity, corn; format: in vivo, Zea mays var. Agway 425X; details: Zea mays, pre-emergence, 0.3 kg/ha, after 17-21 days, read-out: Preemergence herbicidal activity (% control), Corn
Experimental: as §1, §2, §3, §4, §5, §6

Wheat [19] = assay: Preemergence herbicidal activity, wheat; format: in vivo, Triticum aestivum var. Wheaton; details: Triticum aestivum, pre-emergence, 0.3 kg/ha, after 17-21 days, read-out: Preemergence herbicidal activity (% control), Wheat
Experimental: as §1, §2, §3, §4, §5, §6

Wheat [20] = assay: Postemergence herbicidal activity, wheat; format: in vivo, Triticum aestivum var. Wheaton; details: Triticum aestivum, post-emergence, 0.3 kg/ha, after 17-21 days, read-out: Postemergence herbicidal activity (% control), Wheat
Experimental: as §1, §2, §3, §4, §5, §6

| SMILES | activity at 300 g/ha (Blackgrass [1]) | activity at 300 g/ha (Soybean [2]) | activity at 300 g/ha (Johnsongrass [3]) | activity at 300 g/ha (Morningglory [4]) | activity at 300 g/ha (Chickweed [5]) | activity at 300 g/ha (Morningglory [6]) | activity at 300 g/ha (Velvetleaf [7]) | activity at 300 g/ha (Cocklebur [8]) | activity at 300 g/ha (Corn [9]) | activity at 300 g/ha (Chickweed [10]) | activity at 300 g/ha (Soybean [11]) | activity at 300 g/ha (Blackgrass [12]) | activity at 300 g/ha (Green foxtail [13]) | activity at 300 g/ha (Johnsongrass [14]) | activity at 300 g/ha (Cocklebur [15]) | activity at 300 g/ha (Velvetleaf [16]) | activity at 300 g/ha (Green foxtail [17]) | activity at 300 g/ha (Corn [18]) | activity at 300 g/ha (Wheat [19]) | activity at 300 g/ha (Wheat [20]) |
| --- | --- | --- | --- | --- | --- | --- | --- | --- | --- | --- | --- | --- | --- | --- | --- | --- | --- | --- | --- | --- |
| Cn1c(C(F)(F)F)cc(=O)n(-c2ccc(OCc3ccccc3)cc2)c1=O [Compound 1] | 10% | 80% | 60% | 100% | 95% | 95% | 100% | 80% | 30% | 90% | 75% | 10% | 90% | 75% | 75% | 100% | 100% | 60% | 10% | 0% |
| Cn1c(C(F)(F)F)cc(=O)n(-c2ccc(OCc3ccccc3Cl)cc2)c1=O [Compound 2] | 0% | 60% | 10% | 60% | 0% | 60% | 100% | 30% | 45% | 0% | 20% | 0% | 85% | 70% | 10% | 80% | 100% | 15% | 5% | 0% |
| Cn1c(C(F)(F)F)cc(=O)n(-c2ccc(OCc3cccc(Cl)c3)cc2)c1=O [Compound 3] | 0% | 45% | 90% | 10% | 70% | 90% | 80% | 100% | 60% | 0% | 10% | 0% | 95% | 20% | 0% | 100% | 95% | 10% | 0% | 10% |
| Cn1c(C(F)(F)F)cc(=O)n(-c2ccc(OCc3ccc(Cl)cc3)cc2)c1=O [Compound 4, 3-[4-(4-Chlorophenylmethoxy)phenyl]-1-methyl-6-trifluoromethyluracil] | 50% | 95% | 0% | 90% | 100% | 100% | 100% | 100% | 50% | 100% | 60% | 0% | 80% | 95% | 30% | 95% | 100% | 30% | 10% | 0% |
| Cn1c(C(F)(F)F)cc(=O)n(-c2ccc(OCc3ccc(F)cc3)cc2)c1=O [Compound 5] | 20% | 90% | 75% | 100% | 100% | 100% | 100% | 100% | 75% | 100% | 60% | 30% | 90% | 90% | 40% | 100% | 100% | 50% | 20% | 0% |
| Cn1c(C(F)(F)F)cc(=O)n(-c2ccc(OCc3ccc(Cl)cc3Cl)cc2)c1=O [Compound 6] | 0% | 40% | 20% | 45% | 0% | 50% | 100% | 60% | 20% | 10% | 20% | 0% | 40% | 60% | 10% | 80% | 100% | 10% | 0% | 0% |
| Cn1c(C(F)(F)F)cc(=O)n(-c2ccc(OCc3cccc(Cl)c3Cl)cc2)c1=O [Compound 42] | 0% | 25% | 50% | 70% | 0% | – | 80% | 35% | 30% | 0% | 0% | 0% | 50% | 30% | 0% | 90% | 60% | 0% | 0% | 0% |
